Laboratory results: paper PMC4994520 (European journal of medicinal chemistry, 2012)
Like-named read-outs stand apart in the source and are kept apart here.

Tests used:
PDE3A = PDE3A (Homo sapiens, UniProt Q14432); experiment: PDE3A inhibition, IMAP fluorescence polarization assay; type: biochemical
PDE1A = PDE1A (Homo sapiens, UniProt P54750); experiment: PDE1A inhibition, IMAP fluorescence polarization assay; type: biochemical
PDE11A = PDE11A (Homo sapiens, UniProt Q9HCR9); experiment: PDE11A inhibition, IMAP fluorescence polarization assay; type: biochemical; settings: for IC50: PDE11A inhibition IC50 μM; for selectivity profile (selectivity index) PDE5 versus PDE11: cGMP as the substrate
human PDE5 [1] = target: T1, human PDE5 (Homo sapiens, UniProt O76074); experiment: PDE5 inhibition, IMAP fluorescence polarization phosphodiesterase assay; type: biochemical; settings: for inhibition at 10 µM: read-out: % PDE5 inhibition at 10 μM
PDE10A = PDE10A (Homo sapiens, UniProt Q9Y233); experiment: PDE10A inhibition, IMAP fluorescence polarization assay; type: biochemical; settings: PDE10A inhibition IC50 μM
Chain of PDE10A (Q9Y233 290-1055 limits assumed): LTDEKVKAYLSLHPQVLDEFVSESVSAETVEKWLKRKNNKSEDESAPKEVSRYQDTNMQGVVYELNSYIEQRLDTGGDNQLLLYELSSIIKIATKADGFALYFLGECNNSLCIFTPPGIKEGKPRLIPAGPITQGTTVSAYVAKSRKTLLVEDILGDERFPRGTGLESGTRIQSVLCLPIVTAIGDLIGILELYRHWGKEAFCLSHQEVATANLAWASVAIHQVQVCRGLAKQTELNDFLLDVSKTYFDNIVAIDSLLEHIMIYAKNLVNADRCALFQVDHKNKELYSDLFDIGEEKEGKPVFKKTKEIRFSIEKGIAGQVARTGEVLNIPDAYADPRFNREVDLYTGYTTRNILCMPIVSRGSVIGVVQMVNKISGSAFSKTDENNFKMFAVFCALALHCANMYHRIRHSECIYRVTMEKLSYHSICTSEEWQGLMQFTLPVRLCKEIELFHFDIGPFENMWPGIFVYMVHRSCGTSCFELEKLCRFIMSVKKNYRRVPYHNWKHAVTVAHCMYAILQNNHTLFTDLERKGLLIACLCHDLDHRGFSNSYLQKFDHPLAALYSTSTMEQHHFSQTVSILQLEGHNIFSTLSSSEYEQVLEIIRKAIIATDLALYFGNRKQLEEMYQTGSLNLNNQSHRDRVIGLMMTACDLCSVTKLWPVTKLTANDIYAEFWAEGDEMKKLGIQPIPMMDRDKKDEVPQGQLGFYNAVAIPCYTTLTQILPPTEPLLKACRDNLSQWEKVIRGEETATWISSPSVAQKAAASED

PDE9A = PDE9A (Homo sapiens, UniProt O76083); experiment: PDE9A inhibition, IMAP fluorescence polarization assay; type: biochemical
Chain of PDE9A (O76083 whole entry): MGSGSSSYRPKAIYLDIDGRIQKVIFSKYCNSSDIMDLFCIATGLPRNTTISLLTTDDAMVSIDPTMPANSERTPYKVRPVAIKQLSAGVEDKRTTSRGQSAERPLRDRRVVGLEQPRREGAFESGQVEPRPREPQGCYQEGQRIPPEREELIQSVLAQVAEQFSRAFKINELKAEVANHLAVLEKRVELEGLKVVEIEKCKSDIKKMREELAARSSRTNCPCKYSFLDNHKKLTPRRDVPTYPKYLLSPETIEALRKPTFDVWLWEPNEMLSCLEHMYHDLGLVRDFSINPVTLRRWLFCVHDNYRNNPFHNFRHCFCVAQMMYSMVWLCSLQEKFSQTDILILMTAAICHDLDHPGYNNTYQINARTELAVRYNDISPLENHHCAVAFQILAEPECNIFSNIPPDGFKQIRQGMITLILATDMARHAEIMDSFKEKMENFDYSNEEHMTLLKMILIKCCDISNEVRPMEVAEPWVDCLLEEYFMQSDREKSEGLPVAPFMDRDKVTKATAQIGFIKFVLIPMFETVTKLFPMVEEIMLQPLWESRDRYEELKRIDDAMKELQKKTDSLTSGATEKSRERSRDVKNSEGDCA

PDE2A = PDE2A (Homo sapiens, UniProt O00408); experiment: PDE2A inhibition, IMAP fluorescence polarization assay; type: biochemical
Chain of PDE2A (O00408 whole entry): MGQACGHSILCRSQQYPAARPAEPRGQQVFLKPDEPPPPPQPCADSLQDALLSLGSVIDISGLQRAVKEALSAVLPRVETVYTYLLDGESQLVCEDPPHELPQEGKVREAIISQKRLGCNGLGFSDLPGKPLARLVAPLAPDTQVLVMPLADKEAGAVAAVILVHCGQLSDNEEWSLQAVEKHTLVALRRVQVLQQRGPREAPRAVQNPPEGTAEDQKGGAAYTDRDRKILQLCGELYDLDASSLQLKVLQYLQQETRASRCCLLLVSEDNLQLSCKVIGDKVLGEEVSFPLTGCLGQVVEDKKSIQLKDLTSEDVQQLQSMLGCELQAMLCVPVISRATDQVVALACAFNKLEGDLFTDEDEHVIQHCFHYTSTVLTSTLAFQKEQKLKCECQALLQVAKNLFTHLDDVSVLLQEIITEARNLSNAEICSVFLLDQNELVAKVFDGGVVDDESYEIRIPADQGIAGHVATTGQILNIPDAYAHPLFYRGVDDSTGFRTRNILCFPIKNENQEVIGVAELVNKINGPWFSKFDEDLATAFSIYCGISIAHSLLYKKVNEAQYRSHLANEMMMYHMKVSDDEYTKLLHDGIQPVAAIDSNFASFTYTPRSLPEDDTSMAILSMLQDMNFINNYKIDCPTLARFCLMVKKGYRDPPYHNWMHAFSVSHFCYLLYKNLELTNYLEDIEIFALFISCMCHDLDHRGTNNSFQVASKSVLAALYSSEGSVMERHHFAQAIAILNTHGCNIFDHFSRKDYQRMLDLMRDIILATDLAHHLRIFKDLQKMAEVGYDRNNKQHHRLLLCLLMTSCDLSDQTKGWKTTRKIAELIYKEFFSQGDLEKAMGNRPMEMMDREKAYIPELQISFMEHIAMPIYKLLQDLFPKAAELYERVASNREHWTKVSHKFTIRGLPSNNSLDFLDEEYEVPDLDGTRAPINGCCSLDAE

PDE3B = PDE3B (Homo sapiens, UniProt Q13370); experiment: PDE3B inhibition, IMAP fluorescence polarization assay; type: biochemical
Chain of PDE3B (Q13370 whole entry): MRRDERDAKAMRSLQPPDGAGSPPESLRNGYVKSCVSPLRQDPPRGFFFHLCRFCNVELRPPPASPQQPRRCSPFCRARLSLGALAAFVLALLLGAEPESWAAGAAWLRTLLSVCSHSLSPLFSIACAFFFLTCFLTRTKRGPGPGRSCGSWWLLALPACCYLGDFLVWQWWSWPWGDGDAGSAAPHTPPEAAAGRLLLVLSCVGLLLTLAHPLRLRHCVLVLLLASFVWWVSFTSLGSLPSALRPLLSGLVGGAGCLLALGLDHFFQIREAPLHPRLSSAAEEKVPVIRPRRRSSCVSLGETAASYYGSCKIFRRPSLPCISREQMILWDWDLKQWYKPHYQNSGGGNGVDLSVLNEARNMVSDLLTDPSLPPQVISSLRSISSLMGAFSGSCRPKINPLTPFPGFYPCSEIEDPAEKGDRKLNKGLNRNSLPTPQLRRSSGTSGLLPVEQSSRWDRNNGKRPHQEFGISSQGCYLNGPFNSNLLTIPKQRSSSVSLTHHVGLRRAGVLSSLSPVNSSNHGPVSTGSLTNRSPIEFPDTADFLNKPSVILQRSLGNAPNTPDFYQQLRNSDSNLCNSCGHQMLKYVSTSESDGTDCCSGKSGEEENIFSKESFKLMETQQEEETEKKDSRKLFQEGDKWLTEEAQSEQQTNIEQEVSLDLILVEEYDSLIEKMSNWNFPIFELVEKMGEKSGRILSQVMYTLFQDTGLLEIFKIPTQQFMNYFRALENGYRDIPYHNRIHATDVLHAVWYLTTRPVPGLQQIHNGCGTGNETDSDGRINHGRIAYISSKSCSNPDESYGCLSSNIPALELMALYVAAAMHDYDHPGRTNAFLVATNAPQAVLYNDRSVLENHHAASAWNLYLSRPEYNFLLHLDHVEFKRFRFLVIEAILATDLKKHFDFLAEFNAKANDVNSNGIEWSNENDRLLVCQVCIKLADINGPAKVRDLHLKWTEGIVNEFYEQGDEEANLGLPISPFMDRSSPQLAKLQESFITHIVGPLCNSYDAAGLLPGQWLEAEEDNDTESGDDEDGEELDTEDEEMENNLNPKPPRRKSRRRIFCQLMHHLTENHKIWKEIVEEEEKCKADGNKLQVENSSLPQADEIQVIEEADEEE

human PDE5 [2] = target: T1, human PDE5; settings: tadalafil and earlier analogues, Table 1; cited from earlier work
[3] = read-out: PDE3A inhibition IC50 μM, substrate cGMP
[4] = read-out: PDE1A inhibition IC50 μM, substrate cGMP
[5] = read-out: PDE2A inhibition IC50 μM, substrate cGMP
[6] = read-out: PDE3B inhibition IC50 μM, substrate cGMP

Chain of PDE3A (Q14432 whole entry): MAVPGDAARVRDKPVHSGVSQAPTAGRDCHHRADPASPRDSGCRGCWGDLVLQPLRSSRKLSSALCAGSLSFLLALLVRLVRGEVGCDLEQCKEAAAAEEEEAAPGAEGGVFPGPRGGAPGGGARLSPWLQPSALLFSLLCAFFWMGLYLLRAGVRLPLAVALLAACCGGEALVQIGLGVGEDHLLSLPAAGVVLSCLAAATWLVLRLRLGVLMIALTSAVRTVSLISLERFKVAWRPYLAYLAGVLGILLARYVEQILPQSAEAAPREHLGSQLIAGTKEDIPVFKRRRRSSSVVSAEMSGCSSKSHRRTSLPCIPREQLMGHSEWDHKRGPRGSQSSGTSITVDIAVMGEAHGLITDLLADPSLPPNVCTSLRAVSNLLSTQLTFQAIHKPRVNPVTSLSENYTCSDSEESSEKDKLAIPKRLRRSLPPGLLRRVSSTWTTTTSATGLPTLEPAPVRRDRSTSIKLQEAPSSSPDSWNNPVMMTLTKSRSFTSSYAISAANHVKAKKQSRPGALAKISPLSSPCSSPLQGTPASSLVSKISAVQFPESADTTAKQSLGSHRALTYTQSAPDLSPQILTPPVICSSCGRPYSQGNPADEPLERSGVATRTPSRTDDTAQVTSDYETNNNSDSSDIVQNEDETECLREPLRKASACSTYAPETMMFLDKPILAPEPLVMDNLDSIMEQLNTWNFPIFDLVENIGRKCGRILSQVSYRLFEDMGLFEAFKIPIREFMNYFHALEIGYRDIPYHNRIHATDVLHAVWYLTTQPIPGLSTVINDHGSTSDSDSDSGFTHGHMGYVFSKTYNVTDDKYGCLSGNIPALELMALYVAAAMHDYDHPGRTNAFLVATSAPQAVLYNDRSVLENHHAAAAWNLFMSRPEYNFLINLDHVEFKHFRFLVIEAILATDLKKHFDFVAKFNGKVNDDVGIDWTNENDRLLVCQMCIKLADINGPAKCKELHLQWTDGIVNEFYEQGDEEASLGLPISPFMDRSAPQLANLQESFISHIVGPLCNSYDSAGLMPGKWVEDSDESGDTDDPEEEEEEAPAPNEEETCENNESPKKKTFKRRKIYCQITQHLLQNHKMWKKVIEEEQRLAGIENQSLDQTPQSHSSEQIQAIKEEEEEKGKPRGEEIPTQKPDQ
Chain of PDE1A (P54750 whole entry): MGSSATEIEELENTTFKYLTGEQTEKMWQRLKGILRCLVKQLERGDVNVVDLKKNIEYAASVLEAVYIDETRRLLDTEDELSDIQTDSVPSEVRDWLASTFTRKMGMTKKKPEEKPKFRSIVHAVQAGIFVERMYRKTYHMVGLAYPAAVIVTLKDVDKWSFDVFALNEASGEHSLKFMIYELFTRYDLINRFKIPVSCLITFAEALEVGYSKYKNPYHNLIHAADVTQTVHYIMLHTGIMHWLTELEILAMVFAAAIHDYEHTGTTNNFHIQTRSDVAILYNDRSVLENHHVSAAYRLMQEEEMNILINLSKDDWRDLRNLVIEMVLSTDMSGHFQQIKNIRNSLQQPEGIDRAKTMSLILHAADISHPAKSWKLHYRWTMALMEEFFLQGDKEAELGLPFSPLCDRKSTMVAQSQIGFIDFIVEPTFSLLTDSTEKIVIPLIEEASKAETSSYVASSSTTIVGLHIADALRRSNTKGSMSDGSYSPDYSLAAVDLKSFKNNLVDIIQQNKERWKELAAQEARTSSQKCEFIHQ

| IC50 (PDE3A) | IC50 (PDE3A; [3]) | IC50 (PDE1A) | IC50 (PDE1A; [4]) | IC50 (PDE11A; substrate cAMP) | IC50 (PDE11A; substrate cGMP) | selectivity profile (selectivity index) PDE5 versus PDE11 (PDE11A) | IC50 (human PDE5 [1]) | inhibition at 10 µM (human PDE5 [1]) | IC50 (PDE10A; substrate cAMP) | IC50 (PDE10A; substrate cGMP) | IC50 (PDE9A) | IC50 (PDE2A) | IC50 (PDE2A; [5]) | IC50 (PDE3B) | IC50 (PDE3B; [6]) | times improved activity compared to five member congener 5 (human PDE5 [1]; PDE5 IC50, 29 versus 5) | Compound | % PDE5 inhibition at 10 μM (human PDE5 [2]) |
| --- | --- | --- | --- | --- | --- | --- | --- | --- | --- | --- | --- | --- | --- | --- | --- | --- | --- | --- |
| > 50 µM | > 50 µM | > 50 µM | > 50 µM | 1.3 µM | 1.13 µM | 94 | 0.012 µM | 91% | > 50 µM | > 50 µM | > 50 µM | > 50 µM | > 50 µM | > 50 µM | > 50 µM |  | CN1CC(=O)N2[C@H](c3ccc(Br)cc3)c3[nH]c4ccccc4c3C[C@H]2C1=O [Compound 28, (6R,12aS)-6-(4-Bromophenyl)-2-methyl-2,3,6,7,12,12a-hexahydropyrazino [1′,2′:1,6]pyrido[3,4-b]indole-1,4-dione] |  |
| > 50 µM | > 50 µM | > 50 µM | > 50 µM | 44 µM | 35.7 µM | 700 | 0.051 µM | 101% | > 50 µM | > 50 µM | > 50 µM | > 50 µM | > 50 µM | > 50 µM | > 50 µM |  | CCN1C(=O)[C@@H]2Cc3c([nH]c4ccccc34)[C@@H](c3ccc(Br)cc3)N2C1=O [Compound 8, (5R,11aS)-5-(4-Bromophenyl)-2-ethyl-5,6,11,11a-tetrahydro-1H-imidazo[1′,5′:1,6]pyrido[3,4-b]indole-1,3(2H)-dione] |  |
| > 50 µM | > 50 µM | > 50 µM | > 50 µM |  |  |  |  |  | > 50 µM | > 50 µM | > 50 µM | > 50 µM | > 50 µM | > 50 µM | > 50 µM |  | CN1CC(=O)N2[C@H](c3ccc4c(c3)OCO4)c3[nH]c4ccccc4c3C[C@@H]2C1=O [Compound I, tadalafil, reference compound] | 100% |
| > 50 µM | > 50 µM | > 50 µM | > 50 µM | 0.3 µM | 0.27 µM | 90 | 0.003 µM | 96% | 26.1 µM | 14.7 µM | > 50 µM | > 50 µM | > 50 µM | > 50 µM | > 50 µM | 1000 times | CCN1CC(=O)N2[C@H](c3ccc(Br)cc3)c3[nH]c4ccccc4c3C[C@@H]2C1=O [Compound 29, (6R,12aR)-2-Ethyl-6-(4-bromophenyl)-2,3,6,7,12,12a-hexahydropyrazino [1′,2′:1,6]pyrido[3,4-b]indole-1,4-dione] |  |
